The target of experiment [1] is T1, Calpain-2 catalytic subunit (Sus scrofa, UniProt P43367).
T1 sequence (P43367 whole entry): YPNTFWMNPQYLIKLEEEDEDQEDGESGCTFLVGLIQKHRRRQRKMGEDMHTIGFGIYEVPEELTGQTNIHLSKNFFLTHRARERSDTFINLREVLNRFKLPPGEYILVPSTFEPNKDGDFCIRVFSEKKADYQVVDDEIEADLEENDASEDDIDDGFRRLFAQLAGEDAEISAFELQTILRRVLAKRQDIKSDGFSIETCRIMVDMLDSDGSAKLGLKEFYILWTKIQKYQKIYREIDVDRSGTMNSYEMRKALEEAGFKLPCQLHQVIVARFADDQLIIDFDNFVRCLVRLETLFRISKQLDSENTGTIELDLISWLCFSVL
As to the kind of experiment: pig calpain II inhibitor potency, dose response, biochemical, fluorogenic peptide substrate (AID 1420). The class given is functional.

Experiment [2] is described as follows: inhibitors of intracellular T. cruzi replication, confirmation, NIH3T3 host cells, beta-gal luminescence (AID 2044).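 Also: intracellular parasites grown in NIH/3T3 mouse fibroblasts as host cells; luminescent beta-galactosidase reporter signal from transgenic T. cruzi replicating inside host cells; inhibitors lower the luminescence signal.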 The class given is functional, cell-based.
A short description of experiment [3]: cytotoxicity toward NIH3T3 fibroblasts, dose response, counter-screen, cell-based, ATP luminescence, mouse fibroblasts (AID 2010).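 Also: cells exposed to compound for about 90 hours before reading.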 Format: functional. On the technique in general: A counterscreen serves to expose hits that act by an unwanted route or on another target.
Experiment [4] has as its target T2, Heat shock factor protein 1 (Mus musculus, UniProt P38532).
T2 sequence (P38532 whole entry): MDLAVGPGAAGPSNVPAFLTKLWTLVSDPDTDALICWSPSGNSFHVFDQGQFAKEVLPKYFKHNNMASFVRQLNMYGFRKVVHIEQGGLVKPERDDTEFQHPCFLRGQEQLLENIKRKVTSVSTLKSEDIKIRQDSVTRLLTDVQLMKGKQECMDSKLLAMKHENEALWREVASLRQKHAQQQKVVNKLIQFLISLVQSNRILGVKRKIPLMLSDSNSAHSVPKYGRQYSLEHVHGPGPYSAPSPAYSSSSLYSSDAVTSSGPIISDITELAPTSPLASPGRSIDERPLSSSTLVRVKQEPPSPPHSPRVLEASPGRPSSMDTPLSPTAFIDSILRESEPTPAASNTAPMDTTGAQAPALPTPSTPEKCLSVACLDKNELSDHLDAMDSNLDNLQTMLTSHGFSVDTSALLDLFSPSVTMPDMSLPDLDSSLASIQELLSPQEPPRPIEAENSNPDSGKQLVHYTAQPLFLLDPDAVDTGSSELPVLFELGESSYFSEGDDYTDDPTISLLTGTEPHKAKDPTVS
Put plainly: HSF1 potentiators in luciferase reporter cells, confirmation, cell-based, NIH3T3, luminescence, dose retest (AID 435004).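 Also: stress induced by proteasome inhibitor MG132 added 30 min after compound; luciferase reporter driven by HSF1 response element in NIH3T3 cells; actives raise luminescence as potentiators of the MG132 stress response.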 Format: functional.

Another experiment addresses Nonstructural protein 1 (Influenza A virus, UniProt Q194T2). Format: functional, Influenza A virus (A/California/07/2009(H1N1)).
A short description of experiment [5]: Luminescence Cell-Based Dose Retest to Confirm Inhibitors of Cancer Stem Cells. [Related pubchem assays (depositor defined):AID2717, AID2721]. Format: functional. As to conditions: Homo sapiens.
For experiment [6], the target named is Luciferin 4-monooxygenase (Photinus pyralis, UniProt P08659). As to the kind of experiment: firefly luciferase enzyme inhibitors, dose response, biochemical, luminescence (AID 1891).
Sequence of Luciferin 4-monooxygenase (P08659 whole entry): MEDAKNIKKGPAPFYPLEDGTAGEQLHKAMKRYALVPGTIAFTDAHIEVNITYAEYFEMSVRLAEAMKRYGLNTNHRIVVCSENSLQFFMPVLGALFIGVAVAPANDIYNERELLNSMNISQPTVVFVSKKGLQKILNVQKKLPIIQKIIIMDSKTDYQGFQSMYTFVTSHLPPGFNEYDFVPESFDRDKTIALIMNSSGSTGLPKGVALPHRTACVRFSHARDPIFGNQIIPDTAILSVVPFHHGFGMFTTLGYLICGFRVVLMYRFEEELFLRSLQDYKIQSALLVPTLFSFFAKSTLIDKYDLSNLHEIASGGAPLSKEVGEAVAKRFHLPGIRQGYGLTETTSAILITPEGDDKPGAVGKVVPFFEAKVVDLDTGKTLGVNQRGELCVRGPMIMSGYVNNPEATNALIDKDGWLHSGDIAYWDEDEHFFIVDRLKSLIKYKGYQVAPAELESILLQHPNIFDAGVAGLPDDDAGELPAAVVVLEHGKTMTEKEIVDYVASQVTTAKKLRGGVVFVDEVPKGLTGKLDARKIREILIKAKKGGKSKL
The nature of experiment [7]: Luminescence Cell-Based Dose Confirmation HTS to Identify Inhibitors of Platelet Dense Granule Release. [Related pubchem assays: 1663 (Primary HTS), 1678 (Summary of Project)]. The class given is functional.
In another experiment the target is T3, Protein skinhead-1 (Caenorhabditis elegans, UniProt P34707).
T3 sequence (P34707 whole entry): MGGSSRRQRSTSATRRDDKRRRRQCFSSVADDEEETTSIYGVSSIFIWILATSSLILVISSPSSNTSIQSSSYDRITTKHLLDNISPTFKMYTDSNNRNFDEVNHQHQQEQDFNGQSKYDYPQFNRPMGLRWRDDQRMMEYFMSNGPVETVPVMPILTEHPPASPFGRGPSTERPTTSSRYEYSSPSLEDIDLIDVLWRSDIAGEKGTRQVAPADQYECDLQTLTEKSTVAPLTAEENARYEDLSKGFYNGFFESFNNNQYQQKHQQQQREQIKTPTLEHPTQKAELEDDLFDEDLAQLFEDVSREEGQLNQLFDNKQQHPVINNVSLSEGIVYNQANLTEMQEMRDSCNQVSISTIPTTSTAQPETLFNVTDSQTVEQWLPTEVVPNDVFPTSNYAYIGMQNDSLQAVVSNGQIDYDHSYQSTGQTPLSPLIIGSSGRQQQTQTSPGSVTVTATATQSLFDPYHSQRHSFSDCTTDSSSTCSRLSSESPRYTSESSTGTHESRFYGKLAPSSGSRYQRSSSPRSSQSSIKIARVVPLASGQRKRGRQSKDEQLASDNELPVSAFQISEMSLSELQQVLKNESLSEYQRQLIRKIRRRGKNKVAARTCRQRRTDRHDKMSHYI
Format: functional.

For experiment [8], the target named is T4, Replicative DNA helicase DnaB (Mycobacterium tuberculosis, UniProt P9WMR3).
T4 sequence (P9WMR3 whole entry): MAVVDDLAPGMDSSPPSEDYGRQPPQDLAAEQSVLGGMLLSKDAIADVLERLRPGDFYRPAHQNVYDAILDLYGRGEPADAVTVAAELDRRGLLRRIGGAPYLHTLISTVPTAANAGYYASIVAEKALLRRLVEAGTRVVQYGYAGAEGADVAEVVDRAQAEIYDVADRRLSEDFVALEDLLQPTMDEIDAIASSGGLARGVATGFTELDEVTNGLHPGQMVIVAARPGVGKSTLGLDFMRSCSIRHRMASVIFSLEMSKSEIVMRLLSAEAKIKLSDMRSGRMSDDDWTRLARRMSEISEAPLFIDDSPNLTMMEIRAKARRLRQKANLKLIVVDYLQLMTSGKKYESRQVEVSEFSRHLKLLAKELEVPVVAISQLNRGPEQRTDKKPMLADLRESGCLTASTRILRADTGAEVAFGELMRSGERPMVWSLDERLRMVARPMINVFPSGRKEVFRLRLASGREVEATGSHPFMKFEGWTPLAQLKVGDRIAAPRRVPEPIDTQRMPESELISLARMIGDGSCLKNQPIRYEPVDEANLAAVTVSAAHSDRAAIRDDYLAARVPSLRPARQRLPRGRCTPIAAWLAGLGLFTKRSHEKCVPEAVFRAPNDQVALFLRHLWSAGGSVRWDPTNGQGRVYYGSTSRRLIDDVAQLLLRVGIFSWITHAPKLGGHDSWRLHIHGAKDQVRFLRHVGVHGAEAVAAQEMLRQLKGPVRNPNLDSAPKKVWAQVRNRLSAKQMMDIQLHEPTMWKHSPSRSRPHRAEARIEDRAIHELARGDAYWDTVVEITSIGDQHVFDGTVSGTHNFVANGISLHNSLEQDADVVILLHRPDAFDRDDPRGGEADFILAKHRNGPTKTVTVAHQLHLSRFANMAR
As to the kind of experiment: DnaB intein splicing inhibitors, dose response, biochemical, cell-free fluorescence (AID 449749). Format: functional.

A further experiment addresses T5, Protein RecA (Mycobacterium tuberculosis, UniProt P9WHJ3).
T5 sequence (P9WHJ3 whole entry): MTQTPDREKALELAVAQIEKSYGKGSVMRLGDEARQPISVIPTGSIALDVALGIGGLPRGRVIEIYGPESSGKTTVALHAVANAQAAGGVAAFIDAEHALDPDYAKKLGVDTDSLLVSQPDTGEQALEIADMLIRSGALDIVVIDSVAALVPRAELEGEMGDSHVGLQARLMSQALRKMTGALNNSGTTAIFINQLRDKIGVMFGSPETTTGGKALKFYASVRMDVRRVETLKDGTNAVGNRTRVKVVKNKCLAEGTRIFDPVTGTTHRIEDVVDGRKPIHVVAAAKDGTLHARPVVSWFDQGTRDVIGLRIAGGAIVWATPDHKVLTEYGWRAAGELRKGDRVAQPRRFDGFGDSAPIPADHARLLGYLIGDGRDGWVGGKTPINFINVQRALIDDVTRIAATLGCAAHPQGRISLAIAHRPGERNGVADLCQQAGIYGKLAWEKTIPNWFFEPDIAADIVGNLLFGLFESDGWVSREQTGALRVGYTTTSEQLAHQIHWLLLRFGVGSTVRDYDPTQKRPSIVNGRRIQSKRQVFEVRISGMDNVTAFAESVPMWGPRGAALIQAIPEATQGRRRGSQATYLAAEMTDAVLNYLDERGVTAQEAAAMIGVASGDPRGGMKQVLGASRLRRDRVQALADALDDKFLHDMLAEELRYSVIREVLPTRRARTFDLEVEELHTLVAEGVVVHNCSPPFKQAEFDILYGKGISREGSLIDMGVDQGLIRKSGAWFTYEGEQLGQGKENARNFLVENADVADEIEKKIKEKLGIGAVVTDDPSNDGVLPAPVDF
As to the kind of experiment: Fluorescence Cell-Free Homogeneous Dose Retest to Identify Inhibitors of RecA-Intein Splicing Activity. [Related pubchem assays (depositor defined):AID2097, AID2223, AID489010, AID492950]. The class given is functional.

In experiment [9] the target is T6, Fatty acid synthase (Homo sapiens, UniProt P49327). Put plainly: FAS thioesterase domain inhibitors, dose response, biochemical, endpoint fluorescence intensity, uHTS hits (AID 624327).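 Also: fluorescence from hydrolysis of an O-methyl fluorescein acyl ester substrate by the enzyme.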 The class given is functional.
T6 sequence (P49327 whole entry, the tested form may be a part): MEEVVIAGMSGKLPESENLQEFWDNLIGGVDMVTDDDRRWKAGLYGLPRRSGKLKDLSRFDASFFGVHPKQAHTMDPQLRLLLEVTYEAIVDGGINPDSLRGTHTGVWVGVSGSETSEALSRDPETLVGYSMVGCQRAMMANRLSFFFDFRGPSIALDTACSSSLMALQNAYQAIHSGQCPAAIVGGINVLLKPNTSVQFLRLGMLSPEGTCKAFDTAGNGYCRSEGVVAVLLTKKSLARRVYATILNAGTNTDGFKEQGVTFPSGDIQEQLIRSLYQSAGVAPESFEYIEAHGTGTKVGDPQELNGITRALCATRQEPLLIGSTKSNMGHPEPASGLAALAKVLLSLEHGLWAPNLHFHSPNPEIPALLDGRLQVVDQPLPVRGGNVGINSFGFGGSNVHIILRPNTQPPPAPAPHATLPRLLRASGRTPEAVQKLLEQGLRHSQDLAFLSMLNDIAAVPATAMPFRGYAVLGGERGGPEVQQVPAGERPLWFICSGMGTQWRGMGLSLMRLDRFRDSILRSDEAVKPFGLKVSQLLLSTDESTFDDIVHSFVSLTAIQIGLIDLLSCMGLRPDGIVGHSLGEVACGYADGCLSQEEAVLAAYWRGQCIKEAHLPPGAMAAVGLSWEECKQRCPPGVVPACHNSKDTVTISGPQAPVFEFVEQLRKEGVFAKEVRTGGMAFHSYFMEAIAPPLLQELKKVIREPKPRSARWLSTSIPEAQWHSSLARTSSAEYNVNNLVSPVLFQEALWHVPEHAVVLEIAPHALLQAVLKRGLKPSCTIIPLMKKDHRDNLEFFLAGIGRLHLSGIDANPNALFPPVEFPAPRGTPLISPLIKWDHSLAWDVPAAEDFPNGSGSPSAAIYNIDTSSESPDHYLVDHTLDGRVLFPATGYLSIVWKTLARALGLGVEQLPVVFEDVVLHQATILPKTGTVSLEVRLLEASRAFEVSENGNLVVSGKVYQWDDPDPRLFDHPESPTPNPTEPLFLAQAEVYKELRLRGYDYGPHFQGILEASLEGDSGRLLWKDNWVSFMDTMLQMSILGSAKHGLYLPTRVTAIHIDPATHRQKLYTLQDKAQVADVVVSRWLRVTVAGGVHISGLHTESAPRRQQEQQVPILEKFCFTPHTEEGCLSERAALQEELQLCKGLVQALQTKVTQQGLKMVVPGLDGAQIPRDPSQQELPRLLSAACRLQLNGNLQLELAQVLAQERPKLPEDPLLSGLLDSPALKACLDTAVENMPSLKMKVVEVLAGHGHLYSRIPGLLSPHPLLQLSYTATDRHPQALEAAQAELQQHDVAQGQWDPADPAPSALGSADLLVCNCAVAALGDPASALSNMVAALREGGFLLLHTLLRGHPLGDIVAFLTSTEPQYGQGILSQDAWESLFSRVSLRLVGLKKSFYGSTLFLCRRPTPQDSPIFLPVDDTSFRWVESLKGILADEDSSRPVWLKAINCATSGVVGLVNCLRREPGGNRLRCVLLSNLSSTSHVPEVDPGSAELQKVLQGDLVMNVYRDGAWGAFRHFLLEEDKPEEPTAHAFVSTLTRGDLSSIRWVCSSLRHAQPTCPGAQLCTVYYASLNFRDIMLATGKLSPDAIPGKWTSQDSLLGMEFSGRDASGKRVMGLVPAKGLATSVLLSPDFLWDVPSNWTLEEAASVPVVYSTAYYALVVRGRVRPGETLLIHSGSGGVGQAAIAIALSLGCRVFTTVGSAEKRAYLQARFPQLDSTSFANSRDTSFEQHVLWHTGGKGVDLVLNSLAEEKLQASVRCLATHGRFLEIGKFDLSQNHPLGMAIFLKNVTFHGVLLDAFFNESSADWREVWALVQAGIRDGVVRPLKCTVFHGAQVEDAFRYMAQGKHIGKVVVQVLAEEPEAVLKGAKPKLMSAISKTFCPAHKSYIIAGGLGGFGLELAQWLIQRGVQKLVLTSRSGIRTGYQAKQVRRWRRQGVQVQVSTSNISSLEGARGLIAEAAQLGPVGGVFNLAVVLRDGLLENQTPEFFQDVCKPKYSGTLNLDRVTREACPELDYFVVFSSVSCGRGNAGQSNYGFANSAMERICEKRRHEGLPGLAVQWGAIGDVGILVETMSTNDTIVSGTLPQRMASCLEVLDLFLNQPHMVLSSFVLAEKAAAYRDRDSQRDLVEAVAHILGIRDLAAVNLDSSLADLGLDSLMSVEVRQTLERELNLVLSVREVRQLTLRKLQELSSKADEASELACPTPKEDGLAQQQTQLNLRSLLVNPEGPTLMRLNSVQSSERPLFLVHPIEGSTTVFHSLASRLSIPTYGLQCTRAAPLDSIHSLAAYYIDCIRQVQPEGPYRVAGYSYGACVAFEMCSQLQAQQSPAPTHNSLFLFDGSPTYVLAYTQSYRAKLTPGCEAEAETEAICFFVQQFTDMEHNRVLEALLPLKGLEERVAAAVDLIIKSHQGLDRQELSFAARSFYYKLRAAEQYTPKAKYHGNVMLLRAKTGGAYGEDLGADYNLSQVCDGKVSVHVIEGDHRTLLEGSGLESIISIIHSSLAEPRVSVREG
In experiment [10] the target is T6, Fatty acid synthase. As to the kind of experiment: FAS thioesterase domain inhibitors, dose response, biochemical, kinetic fluorescence intensity (AID 624326).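 Also: rate of fluorescence rise from hydrolysis of a fluorogenic O-methyl fluorescein ester substrate.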 The class given is functional.
The next experiment concerns INS1. As to the kind of experiment: beta cell apoptosis inhibitors, cytokine rescue, dose response, luminescence, retest (AID 449756).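 Also: cell death triggered by IL-1 beta plus TNF-alpha plus IFN-gamma mixture; protective hits raise ATP signal compared with cytokine alone wells.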 Format: functional, cell-based. Particulars: Rattus norvegicus.

Each structure is given as a SMILES string. Active and inactive are the calls of the source.

Sequence of Nonstructural protein 1 (Q194T2 whole entry): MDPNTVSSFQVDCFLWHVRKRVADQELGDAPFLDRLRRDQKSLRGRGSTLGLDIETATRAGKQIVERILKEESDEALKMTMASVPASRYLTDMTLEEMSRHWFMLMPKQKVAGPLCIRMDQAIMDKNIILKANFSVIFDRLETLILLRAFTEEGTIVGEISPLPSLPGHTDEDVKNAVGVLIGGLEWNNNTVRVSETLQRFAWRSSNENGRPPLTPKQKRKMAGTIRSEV

As usually defined, the IC50 is the concentration that gives 50% inhibition. On to `CC1CC(=O)c2cnc(NCC3CCCO3)nc2C1` (stereo not drawn), for which the IC50 in [1] is 6.33 µM (not active). The EC50 is the concentration giving half of the maximal effect. On to `c1ccc(CCc2ccncc2)cc1`, for which the EC50 in experiment [2] was 1.52 µM (active); in experiment [3], > 60 µM (not active); in [4], > 260 µM (inactive). Regarding `Cc1cccc(-n2cnc(C(=O)NN=C(S)Nc3ccc(Cl)cc3)c2)n1`, the IC50 on Nonstructural protein 1 was 8.22 µM (active).

For the compound `COc1ccc(C(=O)NCC(=O)OCC(=O)c2ccc3c(c2)NC(=O)CO3)cc1`, in experiment [4], the EC50 was > 260 µM (inactive). Turning to `FC(F)(F)c1cccc(N2CCN(C(S)=NC3CCCC3)CC2)c1`, in experiment [1], the IC50 is 7.79 µM (not active). Same read-out and setting: the figure for `Cc1ccccc1CCN(C(=O)Cn1nnc2ccccc21)C(C(=O)NCC1CCCO1)c1nc2ccccc2n1C` (stereo not drawn) is 29.6 µM (not active). A word on the AC50: it is the concentration giving half of the maximal activity seen. For the compound `CCOC(=O)N1CCN(c2ccc(C(=O)c3cccc(F)c3)cc2)CC1`, the IC50 in experiment [1] is reported as 14.3 µM (not active). Also, the AC50 in experiment [5] is 3.36 µM (active). On to `COc1cc(C2CC(=O)Oc3c(C(CCN4CCCC(C)C4)c4ccc(N(C)C)cc4)c(OC)cc(OC)c32)cc(OC)c1OC` (stereo not drawn), for which, at Nonstructural protein 1, the IC50 is 28.5 µM (active). As to `CCCCC(=O)OCC(=O)c1[nH]c(C)c(C(C)=O)c1C`, the results for the EC50 in [6] and in experiment [7] were > 112 µM (not active) and 0.816 µM (active), respectively. In experiment [1], the half-inhibitory concentration (IC50) is reported as 21.5 µM (not active). Consider `C=C1CCC[C@]2(C)C[C@H]3OC(=O)C(CNC(CC)CO)[C@H]3CC12` (stereo partly drawn), for which, in [4], the EC50 is > 260 µM (inactive). Consider `O=[N+]([O-])c1cc(Br)c2nsnc2c1N1CCOCC1`, for which the IC50 at Nonstructural protein 1 was 27.5 µM (active). On to `Cc1nn(-c2ccc(F)cc2)c2sc(C(=O)N3CCCCCC3)cc12`, for which the IC50 in [1] was > 50 µM (not active); on Protein skinhead-1, > 100 µM (inactive). Regarding `CC(C)Cn1c(SCC(=O)NC(=O)Nc2ccc3c(c2)OCCO3)nc2ccccc2c1=O`, the IC50 in experiment [1] is > 50 µM (not active). On to `O=C(O)c1cccnc1Sc1ccccc1`, for which the EC50 in experiment [4] is > 260 µM (inactive).

Turning to `COc1cc(OC)cc(-c2nnc(Sc3ccc(C=O)cc3[N+](=O)[O-])o2)c1`, the figures for the EC50 (in experiment [4]; at Protein RecA) were > 260 µM (inactive) and 2.04 µM (active), respectively. The AC50 in experiment [8] was 6.58 µM (active). As to `C=CCSc1nnc(-c2ccc([N+](=O)[O-])cc2)o1`, the IC50 in experiment [1] is recorded as 34.3 µM (not active).

`COc1c(Br)cc(Br)cc1C(=O)O`: in experiment [4], the EC50 was > 260 µM (inactive). Regarding `COC(=O)c1cccc(C(=O)N2CCCC(C(=O)c3ccccc3OC)C2)c1` (stereo not drawn), in [4], the EC50 was > 260 µM (inactive). On the same count and under the same terms, the figure for `COc1ccc(C2=CC(=O)CC(c3ccc(F)cc3)C2)cn1` (stereo not drawn) is > 260 µM (inactive); for `COCCNC(=S)N/N=C/c1ccc(N2CCOCC2)cc1` it is > 260 µM (inactive). Turning to `O=C(CN1CCN(S(=O)(=O)c2ccc(Cl)c(C(F)(F)F)c2)CC1)NC(=O)NC1CCCCC1`, the IC50 was 3.5 µM (active) at Fatty acid synthase [9] and 37.1 µM (inactive) on Fatty acid synthase [10]. As for `NC(=S)N/N=C/c1ccccc1O`, the IC50 on Nonstructural protein 1 was 14.1 µM (active). In addition, in the experiment on INS1, the AC50 is 0.945 µM (active). For `O=[N+]([O-])c1cc(/C=N/Nc2nc(N3CCCCC3)nc(N3CCCCC3)n2)ccc1O`, the IC50 at Nonstructural protein 1 was > 100 µM (active).

(Values after ChEMBL document CHEMBL1201862, “PubChem BioAssay data set” (2004).)
